Reference: patent US8846704B2, “Thiopyrimidine-based compounds and uses thereof” (YM Biosciences Austraila Pty Ltd, priority 2007, dated 2014)

Target: T1, FLT-3 tyrosine kinase (Homo sapiens, UniProt P36888)
T1 construct: purchased Upstate Cell Signalling Solutions, CA, USA 14-500
T1 sequence (P36888 27-993): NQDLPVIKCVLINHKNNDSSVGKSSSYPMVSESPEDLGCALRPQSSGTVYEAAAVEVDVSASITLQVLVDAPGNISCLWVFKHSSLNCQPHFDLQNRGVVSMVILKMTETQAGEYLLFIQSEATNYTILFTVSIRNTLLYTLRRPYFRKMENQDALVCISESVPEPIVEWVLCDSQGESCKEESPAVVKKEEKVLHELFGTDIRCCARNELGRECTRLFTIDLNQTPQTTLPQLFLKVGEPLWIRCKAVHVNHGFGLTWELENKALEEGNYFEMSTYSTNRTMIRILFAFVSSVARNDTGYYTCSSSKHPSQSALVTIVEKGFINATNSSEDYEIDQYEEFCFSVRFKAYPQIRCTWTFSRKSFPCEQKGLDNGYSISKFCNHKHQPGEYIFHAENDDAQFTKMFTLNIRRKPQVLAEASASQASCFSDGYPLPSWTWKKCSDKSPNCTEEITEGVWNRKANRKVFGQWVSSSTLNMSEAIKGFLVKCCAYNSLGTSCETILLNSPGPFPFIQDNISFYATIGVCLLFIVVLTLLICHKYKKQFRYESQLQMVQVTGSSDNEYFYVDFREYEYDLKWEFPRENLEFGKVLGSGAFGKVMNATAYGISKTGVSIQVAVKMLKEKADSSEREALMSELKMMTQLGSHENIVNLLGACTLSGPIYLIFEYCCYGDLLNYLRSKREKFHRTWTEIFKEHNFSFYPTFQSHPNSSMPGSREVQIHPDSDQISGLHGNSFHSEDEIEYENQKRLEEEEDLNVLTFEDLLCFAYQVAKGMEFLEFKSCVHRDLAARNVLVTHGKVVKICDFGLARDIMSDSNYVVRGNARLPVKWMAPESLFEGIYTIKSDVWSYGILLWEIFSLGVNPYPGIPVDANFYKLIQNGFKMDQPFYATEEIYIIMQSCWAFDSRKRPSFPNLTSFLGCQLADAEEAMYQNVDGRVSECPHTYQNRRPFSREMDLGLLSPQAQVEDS
Assay: Alphascreen tyrosine kinase enzyme assay, FLT-3
Assay type: biochemical
Conditions: FLT3; read-out: FMS, FLT3, or HCK IC50_nM (FLT3)
Protocol: For screening purposes, compounds (in 100% DMSO) were warmed at 37 degrees for at least 20 minutes before use. A […] stock was initially made in assay buffer, where the final concentration of DMSO was 0.3%. The stocks were then diluted in 384 well Optiplates (Packard) where the final concentration of the compound was […].
FLT-3 tyrosine kinase enzyme was purchased from Upstate Cell Signalling Solutions, CA, USA (flt-3 catalog #: 14-500).
Kinase assays were performed in 384 well Optiplates (Packard) using an Alphascreen Protein Tyrosine Kinase PY100 detection kit The compounds were pre-incubated with affinity purified PTK domain in the presence of phosphotyrosine assay buffer (10 mM HEPES, pH 7.5, 100 mM MgCl2, 25 mM NaCl, […] and 0.1% Tween 20) for 20 minutes. The compounds were then incubated with substrate in the presence of ATP. The substrate used was susbtrate-1 with the sequence biotin-EGPWLEEEEEAYGWMDF-NH2 [SEQ. ID. NO. 13] (final concentration […]). For HCK 80 μm ATP was used and incubated for 60 minutes. Alphascreen phosphotyrosine acceptor beads followed by streptavidin donor beads at a concentration of 1/100 in stop buffer were added to each well under subdued light and incubated for 2-3 hours., The Alphascreen plates were read on a Packard Fusion Alpha instrument.

| SMILES | IC50 [nM] |
| --- | --- |
| N#CCNCc1cccc(Sc2ccnc(Nc3ccc(N4CCOCC4)cc3)n2)c1 [Compound 68, 2-(3-(2-(4-morpholinophenylao)pyrimidin-4-ylthio)benzylao)acetonitrile] | < 500 |
| OCc1ccc(Sc2ccnc(Nc3ccc(N4CCOCC4)cc3)n2)cc1 [Compound 67, (4-(2-(4-morpholinophenylao)pyrimidin-4-ylthio)phenyl)methanol] | < 100 |
| OCc1cccc(Sc2ccnc(Nc3ccc(N4CCOCC4)cc3)n2)c1 [Compound 62, (3-(2-(4-Morpholinophenylamino)pyrimidin-4-ylthio)phenyl)methanol] | < 100 |
